The record followed here is US6858217B2, “Stabilization of terpenoids in cosmetic compositions” (Unilever Home & Personal Care USA division of Conopco, Inc., priority 2002, dated 2005).

A short description of data set [1]: Storage stability of limonene in skin lotion, GC/HS. Conditions: for initial GC/HS: skin lotion with 1.0% fragrance (limonene 20%). An excerpt:
(§1) The stability of terpenoid components of typical fragrances was examined in skin care formulations containing 4-substituted resorcinol derivatives to determine the resorcinol's effectiveness toward preventing degradation and loss of terpenoid upon storage. Two terpenoid components, limonene and linalool, were formulated as part of a fragrance in standard skin care lotions containing BHT (a standard antioxidant), unsubstituted resorcinol, 4-ethyl resorcinol and 4-hexyl resorcinol. The stability of these fragrance components was measured using GC/HS analysis to determine the loss of each terpenoid molecule with time as stored under typical consumer product storage conditions storage (5-month storage at 40° C. and in the sun at Room Temperature [RT]). The loss of limonene and linalool in a standard formulation containing no “anti-oxidants” was directly compared to loss of these materials with both BHT, unsubstituted resorcinol and the 4-substituted resorcinol derivatives.
(§2) With reference to the data in the Tables below, GC/HS measurements were taken on an Agilent 6890 GC/5973 MS using a Gerstel MPS2 Headspace Sampler. The samples were incubated at 35° C. for one hour and then 2.50 mL of the headspace above the sample was injected onto a Agilent Technologies number 19091S-433, HP-5MS, 5% Phenyl Methyl Siloxane column which has a 30 m×0.25 mm ID with a 0.25 μm film thickness. The GC data is recorded as peak area count for the two fragrance components.
(§3) The formulations in the Table below were prepared in accordance with the method set forth in Example 1 hereinabove.

Data set [2] in a line: Storage stability of linalool in skin lotion, GC/HS. Conditions: for initial GC/HS: skin lotion with 1.0% fragrance (linalool 20%).
Source text: as §1, §2, §3

Data set [3] is described as follows: Overall stabilization of terpenoid fragrance components in skin lotion. Format: physicochemical. Conditions: limonene and linalool in skin lotions, 5-month storage (sun RT, 40° C.). From the text:
In most cases, the “control” formulation without anti-oxidants or the control with the unsubstituted resorcinol lost twice as much limonene and/or linalool as those formulations containing the 4-substituted resorcinols.

The mark [4] stands for this setting: 5-month storage in the sun at RT.

Turning to `Oc1cccc(O)c1` [Resorcinol], the “40° C. 5-months GC/HS” value in data set [1] (5-month storage at 40° C.) was 19260141 peak area count; in data set [2] (5-month storage at 40° C.), 4286137 peak area count. The “40° C. % Loss” value in data set [1] (5-month storage at 40° C.) was determined as 57.6%; in data set [2] (5-month storage at 40° C.), 29.6%. The “Sun 5-months GC/HS” value in data set [1] (setting [4]) is 25743642 peak area count; in data set [2] (setting [4]) it was 3856563 peak area count. Moreover, the results for the “Sun % Loss” value in data set [1] (setting [4]) and in data set [2] (setting [4]) were 43.4% and 36.7%, respectively. For the same molecule, the “initial GC/HS” value in data set [1] is reported as 45478209 peak area count; in data set [2], 6088780 peak area count. In addition, the “stabilizing terpenoid molecules against degradation” value in data set [3] is listed as “little to no stabilization”.

In the case of `CCc1ccc(O)cc1O` [4-EthylResorcinol, 4-ethyl resorcinol], the “40° C. 5-months GC/HS” value turned out to be 46790409 peak area count in data set [1] (5-month storage at 40° C.) and 2292953 peak area count in data set [2] (5-month storage at 40° C.). Besides, the “40° C. % Loss” value in data set [1] (5-month storage at 40° C.) was 12.9%; in data set [2] (5-month storage at 40° C.) it was 30.2%. For the same molecule, the “Sun 5-months GC/HS” value turned out to be 54753996 peak area count in data set [1] (setting [4]) and 2650924 peak area count in data set [2] (setting [4]). Besides, the “Sun % Loss” value is 0% in data set [1] (setting [4]) and 19.4% in data set [2] (setting [4]). Besides, the entries for the “initial GC/HS” value in data set [1] and in data set [2] were 54736538 peak area count and 3288967 peak area count, respectively.

Regarding `CCCCCCc1ccc(O)cc1O` [4-HexylResorcinol, 4-hexyl resorcinol], the “40° C. 5-months GC/HS” value was 3381932 peak area count in data set [1] (5-month storage at 40° C.) and 1466948 peak area count in data set [2] (5-month storage at 40° C.). Moreover, the results for the “40° C. % Loss” value in data set [1] (5-month storage at 40° C.) and in data set [2] (5-month storage at 40° C.) were 18.5% and 10.2%, respectively. The “Sun 5-months GC/HS” value in data set [1] (setting [4]) turned out to be 34662250 peak area count; in data set [2] (setting [4]), 1666185 peak area count. Also, the “Sun % Loss” value in data set [1] (setting [4]) is on record as 7.7%; in data set [2] (setting [4]) it was 7.5%. Further, the “initial GC/HS” value in data set [1] came out at 40778538 peak area count; in data set [2], 2222930 peak area count.

With `Cc1cc(C(C)(C)C)c(O)c(C(C)(C)C)c1` [BHT Sample, BHT], in data set [1] (5-month storage at 40° C.), the “40° C. 5-months GC/HS” value came to 26286287 peak area count, the “40° C. % Loss” value came to 31.7% and the “40° C. % Stabilization” value amounted to 35%. For the same molecule, in data set [1] (setting [4]), the “Sun 5-months GC/HS” value is recorded as 32465677 peak area count, the “Sun % Loss” value came to 15.3% and the “Sun % Stabilization” value amounted to 48%. In data set [1], the “initial GC/HS” value amounted to 38342803 peak area count. For the same molecule, in data set [2] (5-month storage at 40° C.), the “40° C. 5-months GC/HS” value came to 4918953 peak area count, the “40° C. % Loss” value is listed as 28.2% and the “40° C. % Stabilization” value is recorded as 29%. Moreover, in data set [2] (setting [4]), the “Sun 5-months GC/HS” value is 4678449 peak area count, the “Sun % Loss” value is on record as 31.4% and the “Sun % Stabilization” value came to 16.5%. Besides, in data set [2], the “initial GC/HS” value is 6853529 peak area count.
